How the values were obtained:
T7 RNA polymerase = T7 RNA polymerase (Escherichia phage T7, UniProt P00573); assay: Capping rate of mRNA transcription initiated by cap analogs (LC-MS); assay type: biochemical; conditions: for Capping rate: LC-MS of mRNA 5′ fragment
Protocol: During the experiment, the volume of materials required for the system was first calculated, and then sample addition was conducted. The system was first added with sterile enzyme-free water, followed by the sequential addition of 10× buffer, NTPs, and cap analogs, mixed well, and gently centrifuged. Nuclease inhibitors, inorganic pyrophosphatase, T7RNA polymerase, and linearized DNA templates were then added thereto. The system was mixed well, gently centrifuged, and incubated at 37° C. After 2 hours of incubation, the system was added with 1 U of DNase I and incubated at 37° C. for another 30 minutes. The mRNA precipitate was then washed with 75% ethanol, and after the ethanol was briefly evaporated to dryness, the mRNA was redissolved in sterile enzyme-free water. • (3) The transcription product was purified, and the in vitro transcription yield of mRNA was recorded. • (4) The obtained mRNA was subjected to an annealing reaction with a probe.
The annealing reaction was performed in a PCR instrument: 95° C. for 5 minutes; 65° C. for 2 minutes; 55° C. for 2 minutes; 40° C. for 2 minutes; 22° C. for 2 minutes. • (5) Magnetic bead pretreatment and probe binding: 100 μL of magnetic beads was placed on a magnetic frame for pretreatment. The magnetic bead solution was added with 120 μL of sample and incubated at room temperature for 30 minutes with slow mixing. • (6) mRNA splicing and obtaining the mRNA 5′ single-strand sequence bound to the probe
The mixture was added with 20 μL of RNase H (5 U/μL) and incubated at 37° C. for 3 hours with mixing every half hour. After incubation, the magnetic beads were washed and then added with 100 μL of 75% methanol heated to 80° C. The mixture was heated to 80° C. on a heating plate, held for 3 minutes, then placed on a magnetic frame to aspirate the supernatant, and dried at room temperature for 45 minutes to a volume of 10 μL using a centrifugal evaporator. The sample was then resuspended in 50 μL of 100 μM EDTA/1% MeOH and ready for LC-MS analysis to determine the capping of RNA in the transcription reaction. Since there is a significant difference in molecular weight between capped and uncapped bases, the capping rate of mRNA transcription initiated by different cap analogs can be determined based on the difference in molecular mass.

DCP2 enzyme = target: T1, DCP2 enzyme (Schizosaccharomyces pombe, UniProt O13828); assay: Decapping enzyme stability test; assay type: biochemical; conditions: for Decapping rate (%) of DCP2 enzyme: 50 U mRNA decapping enzyme, 37° C., 45 minutes
T1 construct: purchased New England Biolabs
T1 sequence (O13828 1-243 limits assumed): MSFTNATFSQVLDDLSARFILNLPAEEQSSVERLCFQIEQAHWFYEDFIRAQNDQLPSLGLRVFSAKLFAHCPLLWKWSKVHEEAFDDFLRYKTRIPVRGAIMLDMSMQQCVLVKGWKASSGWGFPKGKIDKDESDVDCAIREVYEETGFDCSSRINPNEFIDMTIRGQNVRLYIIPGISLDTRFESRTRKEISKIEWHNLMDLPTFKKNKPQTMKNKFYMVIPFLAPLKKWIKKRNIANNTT
T1 sequence (Q9P805 1-127 partner): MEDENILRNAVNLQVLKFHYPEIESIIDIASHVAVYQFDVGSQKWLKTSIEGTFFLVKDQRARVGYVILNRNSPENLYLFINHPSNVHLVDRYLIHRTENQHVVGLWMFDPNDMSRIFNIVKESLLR
T1 sequence (Q10108 155-180 partner limits assumed): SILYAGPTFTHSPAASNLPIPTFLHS
Protocol: […] of RNA purified by polyacrylamide gel electrophoresis (PAGE) was subjected to an enzymatic reaction with 50 U of mRNA decapping enzyme (New England Biolabs) and 1×MDE buffer at 37° C. for 45 minutes. The enzymatic reactants were subjected to PAGE and stained with SYBR Green II (Lonza), followed by observation of the post-electrophoresis gel image on a Typhoon FLA 7000 (GE Healthcare) instrument. The electrophoresis band intensity ratio of RNA capping to RNA decapping was counted using ImageQuant (GE Healthcare) software, and the decapping rate of the decapping enzyme was calculated.

BALB/C mice = assay: In vivo imaging of Fluc-mRNA LNP expression in mice
Protocol: The LNP preparation containing 5 μg of cap analog-transcribed Fluc-mRNA was intramuscularly injected into female BALB/C mice aged 4 to 6 weeks and weighing 17 to 19 g. At specific time points after administration (6 hours, 12 hours, 24 hours, 48 hours, 96 hours, and 168 hours), the mice were intraperitoneally injected with fluorescence imaging substrate. The mice were then allowed to move freely for 5 minutes, followed by detection of the total radiation intensity of the protein expressed by LNP-carrying mRNA in the mice using an IVIS Spectrum small-animal in vivo imaging system (corresponding to the amount of protein expression).
In the in vivo imaging experiments in mice, the multiple of the total radiation intensity for each group of mice relative to the m6A group is shown in Table 8 (where the total radiation intensity is represented as the given value×10^8 p/s).

[1] = 6 h, 5 μg Fluc-mRNA LNP intramuscular, mice
[2] = 12 h, 5 μg Fluc-mRNA LNP intramuscular, mice
[3] = 24 h, 5 μg Fluc-mRNA LNP intramuscular, mice
[4] = 48 h, 5 μg Fluc-mRNA LNP intramuscular, mice
[5] = 96 h, 5 μg Fluc-mRNA LNP intramuscular, mice
[6] = 168 h, 5 μg Fluc-mRNA LNP intramuscular, mice

Sequence of T7 RNA polymerase (P00573 whole entry, the tested form may be a part): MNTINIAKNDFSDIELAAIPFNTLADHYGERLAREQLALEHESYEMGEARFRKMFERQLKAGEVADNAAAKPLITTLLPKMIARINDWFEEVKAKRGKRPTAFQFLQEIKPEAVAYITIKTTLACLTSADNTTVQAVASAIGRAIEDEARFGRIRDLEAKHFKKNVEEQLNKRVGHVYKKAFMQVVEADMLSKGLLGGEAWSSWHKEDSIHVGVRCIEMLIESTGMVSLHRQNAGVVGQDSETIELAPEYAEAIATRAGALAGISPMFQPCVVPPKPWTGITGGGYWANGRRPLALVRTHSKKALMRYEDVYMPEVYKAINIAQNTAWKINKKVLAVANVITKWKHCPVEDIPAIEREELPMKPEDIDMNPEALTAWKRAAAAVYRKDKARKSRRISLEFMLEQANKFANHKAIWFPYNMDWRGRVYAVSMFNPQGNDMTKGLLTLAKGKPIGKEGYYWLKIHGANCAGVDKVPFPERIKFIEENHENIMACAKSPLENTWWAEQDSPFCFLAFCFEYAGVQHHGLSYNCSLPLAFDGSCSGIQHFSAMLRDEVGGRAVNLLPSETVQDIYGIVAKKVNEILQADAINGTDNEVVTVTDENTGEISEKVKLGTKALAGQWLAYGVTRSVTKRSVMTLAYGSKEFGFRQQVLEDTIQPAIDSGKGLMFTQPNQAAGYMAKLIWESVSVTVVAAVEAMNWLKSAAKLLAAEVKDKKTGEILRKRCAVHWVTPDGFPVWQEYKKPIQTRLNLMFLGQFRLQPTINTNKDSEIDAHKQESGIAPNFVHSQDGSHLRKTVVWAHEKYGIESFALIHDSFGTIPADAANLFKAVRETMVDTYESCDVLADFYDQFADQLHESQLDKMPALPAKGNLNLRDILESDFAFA

Structure (SMILES) | Capping rate (T7 RNA polymerase) [%] | Increase relative to 5227 (capping rate) (T7 RNA polymerase) [%] | Decapping rate (%) of DCP2 enzyme (DCP2 enzyme) [%] | Decrease relative to N-7113 (decapping rate) (DCP2 enzyme) [%] | Multiple of total radiation intensity relative to m6A (BALB/C mice; 6 h) | Total radiation intensity (BALB/C mice; [1]) | Multiple of total radiation intensity relative to m6A (BALB/C mice; 12 h) | Total radiation intensity (BALB/C mice; [2]) | Multiple of total radiation intensity relative to m6A (BALB/C mice; 24 h) | Total radiation intensity (BALB/C mice; [3]) | Multiple of total radiation intensity relative to m6A (BALB/C mice; 48 h) | Total radiation intensity (BALB/C mice; [4]) | Multiple of total radiation intensity relative to m6A (BALB/C mice; 96 h) | Total radiation intensity (BALB/C mice; [5]) | Total radiation intensity (BALB/C mice; [6]) | further results
CO[C@@H]1[C@H](OP(=O)(O)OC[C@H]2O[C@@H](n3cnc4c(=O)[nH]c(N)nc43)[C@H](O)[C@@H]2O)[C@@H](COP(=O)(O)OP(=O)(O)OP(=O)(O)OC[C@H]2OC([n+]3cn(C)c4c(=O)[nH]c(N)nc43)[C@H](O)[C@@H](O)[C@@H]2O)O[C@H]1n1cnc2c(N)ncnc21 (stereo partly shown) [YK-CAP-101] | 42.8 | −40.5 | 32.4 | 11.4 | 0.8 | 1.81 ×108 p/s | 0.5 | 0.96 ×108 p/s | 0.5 | 0.36 ×108 p/s | 0.4 | 0.19 ×108 p/s | 1.5 | 0.04 ×108 p/s | 0.02 ×108 p/s | Total radiation intensity (BALB/C mice; at 12 hours): 0.96 ×10^8 p/s; Total radiation intensity (BALB/C mice; at 48 hours): 0.19 ×10^8 p/s
COC[C@]1(COP(=O)(O)OP(=O)(O)OP(=O)(O)OC[C@H]2O[C@@H](n3cnc4c(N)ncnc43)[C@H](OC)[C@@H]2OP(=O)(O)OC[C@H]2O[C@@H](n3cnc4c(=O)[nH]c(N)nc43)[C@H](O)[C@@H]2O)O[C@@H]([n+]2cn(C)c3c(=O)[nH]c(N)nc32)[C@H](O)[C@@H]1O [YK-CAP-117] | 95.1 | 32.3 | 9.8 | 34.0 | 3.8 | 8.99 ×108 p/s | 3.8 | 8.00 ×108 p/s | 3.2 | 2.08 ×108 p/s | 3.3 | 1.73 ×108 p/s | 0.9 | 0.35 ×108 p/s | 0.02 ×108 p/s | Decapping rate lower than that of HN3002 (DCP2 enzyme; relative to HN3002): 13.5%; Decapping rate lower than that of YK-CAP-101 (DCP2 enzyme; relative to YK-CAP-101): 22.6%; Decapping rate lower than that of YK-CAP-102 (DCP2 enzyme; relative to YK-CAP-102): 31.4%; Decapping rate lower than that of YK-CAP-103 (DCP2 enzyme; relative to YK-CAP-103): 26.7%; Decapping rate lower than that of YK-CAP-104 (DCP2 enzyme; relative to YK-CAP-104): 36.3%; Decapping rate lower than that of YK-CAP-105 (DCP2 enzyme; relative to YK-CAP-105): 24.1%; Decapping rate lower than that of compound 14 (DCP2 enzyme; relative to compound 14): 17.0%; Decapping rate lower than that of m6A (DCP2 enzyme; relative to m6A): 24.0%
COC(C)[C@H]1[C@@H](O)[C@H]([n+]2cn(C)c3c(=O)[nH]c(N)nc32)O[C@@H]1COP(=O)(O)OP(=O)(O)OP(=O)(O)OC[C@H]1O[C@@H](n2cnc3c(N)ncnc32)[C@H](OC)[C@@H]1OP(=O)(O)OC[C@H]1O[C@@H](n2cnc3c(=O)[nH]c(N)nc32)[C@H](O)[C@@H]1O (stereo partly shown) [YK-CAP-107] | 97.3 | 35.3 | 11.5 | 32.3 | 3.4 | 8.09 ×108 p/s | 3.2 | 6.87 ×108 p/s | 2.9 | 1.92 ×108 p/s | 1.2 | 0.60 ×108 p/s | 2.5 | 0.11 ×108 p/s | 0.03 ×108 p/s | 

Source: patent US12576099B2, “Ribose-modified cap analog and use thereof” (Beijing Youcare Kechuang Pharmaceutical Technology Co., Ltd., priority 2024, dated 2026)
